This note sets out measurements from US20080207605A1, “Combination therapy for the treatment of liver diseases” (priority 2007, published 2008).

Data set [1] has as its system male C57B1/6 mice. Kind of data set: TNF-α model of liver injury (TNFα/D-Gln), plasma ALT activity. In kind it is in vivo. As to conditions: PO by gavage 30 minutes before D-Gln/TNFα insult; blood 6 hours later; average from 4 studies. The protocol:
(§1) TNF-α is a cytokine that is implicated in inducing liver injury in a variety of acute and chronic liver diseases such as chronic HCV and acute liver failure. An exemplary in vivo model to test pharmacological agents against TNF-α induced injury is the TNF-α/D-Gal model of liver injury in mice. In this model, mice are treated with TNF-α/D-Gal and compound is administered to evaluate its ability to protect against liver damage. The compound is administered either before, at the time of or after the treatment with TNF-α/D-Gal, and followed for a period of approximately 6 hours. Allowing this model to persist past 6 hours is a variation used to determine the improved survival afforded by compound treatment.
(§2) In vivo efficacy of RO-113-0830 was assessed using male C57B1/6 mice (Simonsen Labs) in two well-established models of liver damage. The mice were allowed to acclimate for at least three days.
In the TNF-α model of liver injury, D-Galactosamine (D-Gln) (800 mg/kg) and TNFα (20 or 40 μg/kg) were injected IP. RO-113-0830 (0.001-30 mg/kg) was administered PO by gavage 30 minutes before insult. Six hours later, animals were anesthetized with Nembutal (50 mg/kg IP), and blood was taken by cardiac puncture. Plasma ALT activity was determined using a kit from Sigma-Aldrich.

The test system of data set [2] is male C57B1/6 mice. Kind of data set: TNF-α model (TNFα/D-Gln), 24 hour survival. Type of data set: in vivo. The following applies: TNFα/D-Gln insult; average from 3 studies; p=0.03 vs control (27±7.3%). The method, then:
as §1, §2
To determine a benefit on survival, TNF-α model, D-Galactosamine (D-Gln) (800 mg/kg) and TNF-α (20 or 40 μg/kg) were injected IP, and mice were allowed to survive for 24 hours post insult. All morbid mice were euthanized with 125 mg/kg of Nembutal IP. The average 24 hour survival from 3 studies was 27±7.3% and. 55±7.6% (p=0.03) in the TNFα/D-Gln control mice and RO-113-0830-treated mice, respectively.

A further data set concerns full-length HCV replicon. Nature of the data set: HCV RNA replicon antiviral evaluation assay. Type of data set: cell-based, Hepatitis C virus. The following applies: 72 hr; HCV RNA replicon levels by TaqMan RT-PCR; read-out: EC50 (concentration inhibition virus replication by 50%). For orientation: A replicon is a self-replicating genome or part of one, used to study replication in cells.

The test system of data set [3] is male C57B1/6 mice. Nature of the data set: Fas driven model of liver damage (Jo-2 antibody), plasma ALT activity. In kind it is in vivo. The following applies: 10 mg/kg PO; 6 hours after Jo-2 IV; average of 2 studies; p<0.05 in each study. The protocol:
as §2
In a Fas driven model of liver damage, an activating antibody to Fas (Jo-2) was administered IV. Six hours later, animals were anesthetized with Nembutal (50 mg/kg IP), and blood was taken by cardiac puncture. Plasma ALT activity was determined using a kit from Sigma-Aldrich.

The subject of data set [4] is Huh7 human hepatoma cell line (the 21-5 cell line). As to conditions: read-out: IC50 for cytotoxicity (concentration decreasing cell viability by 50%); 72 hr; host cell rRNA levels by TaqMan RT-PCR. The text has this: Cells were processed 72 hr later when the cells were still sub-confluent.
A general note: Quantitative PCR measures a nucleic acid by following its amplification.

The next data set has as its system C57/BL6 wild-type mice. Kind of data set: Bile duct ligation model of liver fibrosis. Type of data set: in vivo. As to conditions: 10 mg/kg by gavage once a day. The method, then: The bile duct ligation model is a well characterized model of liver fibrosis. Briefly, C57/BL6 wild-type mice 6 to 8 weeks of age were subjected to bile duct ligation (BDL) for 14 days: Sham-operated wild type mice were used as controls. Either RO 113-0830 or CMC (carboxymethylcellulose) were administered by gavage in a dose of 10 mg/kg body weight once a day. Hepatocyte apoptosis was quantified by the TUNEL assay and immunofluorescence for activated caspases 3/7. Liver injury was assessed by histopathology, and quantification of bile infarcts. Hepatic fibrosis was assessed by Sirius red staining and quantitative morphometry. Real-time polymerase chain reaction (PCR) was used to measure mRNA transcripts for collagen 1alpha (I) and alpha-smooth muscle actin.

Protocol for full-length HCV replicon: The assay was conducted as described by Pietschmann, T. et al., supra.
Human interferon alpha-2b was included in each run as a positive control compound. Subconfluent cultures of the ET line were plated out into 96-well plates that were dedicated for the analysis of cell numbers (cytotoxicity) or antiviral activity and the next day drugs were added to the appropriate wells. Cells were processed 72 hr later when the cells were still sub-confluent. HCV RNA replicon levels and the toxic concentration of drug that reduces cell numbers, as indicated by host cell ribosomal RNA (rRNA) levels, were assessed by TaqMan RT-PCR. The EC50 (concentration inhibition virus replication by 50%), IC50 (concentration decreasing cell viability by 50%) and S150 (selective index: IC50/EC50) values were calculated.

With `O=C(NO)C1(CS(=O)(=O)c2ccc(Oc3ccc(Cl)cc3)cc2)CCOCC1` [RO-113-0830], in the data set with male C57B1/6 mice [1], the “ED50 for decrease of plasma ALT activity” value worked out at 0.26 ± 0.08 mg/kg. In the data set with male C57B1/6 mice [2], the 24 hour survival came out at 55±7.6%. Also, the EC50 with full-length HCV replicon turned out to be 0.07 µM. For the same compound, the “reduction of Fas-induced elevation in plasma ALT activity” value in the data set on male C57B1/6 mice [3] is recorded as 50%. Moreover, the IC50 in data set [4] is about 25 µM. The “reduction of Sirius red staining of hepatic collagen” value with C57/BL6 wild-type mice (14 days of BDL) was determined as 3 fold. In the data set with C57/BL6 wild-type mice (14 days of BDL, histologic examination), the “reduction in the number of bile infarcts vs vehicle treated BDL mice” value was over 70%. In the data set with C57/BL6 wild-type mice (14 days of BDL, p<0.01), the “decrease in TUNEL-positive hepatocytes vs vehicle” value was 3 fold and the “decrease in caspase 3/7-positive hepatocytes vs vehicle” value was found to be 5 fold. In the data set on C57/BL6 wild-type mice (14 days of BDL, real-time PCR), the “reduction of hepatic alpha-smooth muscle actin mRNA vs vehicle-treated BDL animals” value is over 60% and the “reduction of hepatic collagen I mRNA vs vehicle-treated BDL animals” value is listed as over 60%. In the data set on C57/BL6 wild-type mice (p<0.05), the “overall animal survival following 14 days of BDL” value is “significantly enhanced”.
